Strand notation (5' to 3'): a small letter for the sugar, then the base; units joined by * are phosphorothioate-linked, units joined directly phosphodiester-linked; [ ] holds rarer units or linkages, { } end groups; capitals alone tell only the bases. l = locked nucleic acid (LNA); [5mC] = 5-methylcytosine; d = 2'-deoxy (DNA)
What was measured:
miR-122a [1] = assay: miR-122a levels in mouse liver by microRNA specific qPCR; format: in vivo
Description: Total RNA was extracted from liver samples as described above and analysed for miR-122a levels by microRNA specific QPCR.
In vivo study: Ten groups of animals (female C57/BL6; 3 mice per group) were treated in the following manner. Group 1 animals were injected with 0.2 ml saline by i.p. on day 0, day 2 and day 4. Groups 2-10 were dosed by i.p. with three different conc. (25 mg/kg, 5 mg/kg and 1 mg/kg) of either LNA antimiR-122a/SEQ ID NO: 61 (group 2-4), LNA antimir-122a/SEQ ID NO: 66 (group 5-7) or LNA antimir-122a/SEQ ID NO: 63 (group 8-10); the LNA antimir-122a sequences are given in the Table 1. All three LNA antimiR-122a oligonucleotides target the liver-specific miR-122a. The doses were calculated from the Day 0 body weights of each animal.
The animals were sacrificed 48 hours after last dose (Day 6), retro-orbital blood was collected in tubes containing EDTA and the plasma fraction harvested and stored frozen −80° C. for cholesterol analysis. At sacrifice livers were dissected and one portion was cut into 5 mm cubes and immersed in 5 volumes of ice-cold RNAlater. A second portion was snap frozen in liquid nitrogen and stored for cryo-sectioning.
Total RNA was extracted from liver samples using Trizol reagent according to the manufacturer's recommendations (Invitrogen, USA) and analysed for miR-122a levels by microRNA-specific QPCR according to the manufacturer's recommendations (Ambion, USA). […]
NMRI female mice were treated with indicated doses of LNA-antimiR (SEQ ID NO: 61) along with a mismatch control (m, SEQ ID NO: 65), saline and antagomir (SPC3595) for three consecutive days and sacrificed 24 hours after last dose (as in example 11 “old design”, n=5). miR-122 levels were analyzed by qPCR and normalized to the saline treated group.
C57BL/6J female mice were fed on high fat diet for 13 weeks before the initiation of the SEQ ID NO: 63 treatment. […] Both hypercholesterolemic and normal mice were treated i.p. twice weekly with 5 mg/kg SEQ ID NO: 63 and the corresponding mismatch control for a study period of 5½ weeks. Blood samples were collected weekly and total plasma cholesterol was measured during the entire course of the study. Upon sacrificing the mice, liver and blood samples were prepared for total RNA extraction, miRNA and mRNA quantification, assessment of the serum transaminase levels, and liver histology.
The miR-122 and let-7a microRNA levels were quantified with TaqMan microRNA Assay (Applied Biosystems) following the manufacturer's instructions. The RT reaction was diluted ten times in water and subsequently used for real time PCR amplification according to the manufacturer's instructions. A two-fold cDNA dilution series from liver total RNA of a saline-treated animal or mock transfected cells cDNA reaction (using 2.5 times more total RNA than in samples) served as standard to ensure a linear range (Ct versus relative copy number) of the amplification. Applied Biosystems 7500 or 7900 real-time PCR instrument was used for amplification.

miR-122a [2] = assay: Melting temperature (Tm) of LNA anti-miR/miR-122a RNA duplex; format: physicochemical, human; conditions: for Tm, oligo to miR-122 RNA complement: miR-122a; for Tm (° C.): Table 2, towards synthetic miR-122a RNA oligonucleotide with phosphorothioate linkages, PS backbone
Description: The melting temperatures were assessed towards the mature miR-122a sequence, using a synthetic miR-122a RNA oligonucleotide with phosphorothioate linkaged.
The LNA anti-miR/miR-122a oligo duplex was diluted to 3 μM in 500 μl RNase free H2O, which was then mixed with 500 μl 2× dimerization buffer (final oligo/duplex conc. 1.5 μM, 2× Tm buffer: 200 mM NaCl, 0.2 mM EDTA, 20 mM NaP, pH 7.0, DEPC treated to remove RNases). The mix was first heated to 95 degrees for 3 minutes, then allowed to cool at room temperature (RT) for 30 minutes.
Following RT incubation Tm was measured on Lambda 40 UV/VIS Spectrophotometer with peltier temperature progammer PTP6 using PE Templab software (Perkin Elmer). The temperature was ramped up from 20° C. to 95° C. and then down again to 20° C., continuously recording absorption at 260 nm. First derivative and local maximums of both the melting and annealing was used to assess melting/annealing point (Tm), both should give similar/same Tm values. For the first derivative 91 points was used to calculate the slope.

[3] = i.p. on day 0, 2 and 4 at 25, 5 and 1 mg/kg, 48 hours after last dose

Substance	efficacy in vivo in miR-122a silencing compared to SEQ ID NO: 61 (in words) (miR-122a [1]; [3])	Tm, oligo to miR-122 RNA complement (miR-122a [2])	IC50, miR-122a silencing in liver (miR-122a [1]; female C57/BL6, i.p. on day 0, 2 and 4 at 25, 5 and 1 mg/kg, 48 hours after last dose)	miR-122 levels in liver after long-term treatment (in words) (miR-122a [1]; hypercholesterolemic and normal mice, 5 mg/kg i.p. twice weekly for 5½ weeks)	Tm (° C.) (miR-122a [2])	miR-122a inhibition (in words) (miR-122a [1]; 25 mg/kg i.v. on 3 successive days, Day 16)	miR-122a levels (in words) (miR-122a [1]; 25 mg/kg i.v. on 3 successive days, Day 23)	miR-122a inhibition compared to saline control (in words) (miR-122a [1]; 25 mg/kg i.v. on 3 successive days, sacrifice Day 9, 16 or 23)	IC50, miR-122a levels in liver (miR-122a [1]; i.v. on 3 successive days, 2.5-25 mg/kg, 24 hour after last dose)	reduction of miR-122 levels (miR-122a [1]; one week after last LNA dose)
5′-AttGTcaCaCtCC-3′ (antisense lA*dT*dT*lG*lT*dC*dA*l[5mC]*dA*l[5mC]*dT*l[5mC]*l[5mC]) [SEQ ID NO: 66]	significantly improved efficacy in vivo	74 °C	–	–	–	–	–	–	–	–
5′-CcAttGTcaCaCtCC-3′ (antisense CCATTGTCACACTCC; sugars from the 5' end ldlddllddldldll, backbone and methylation of C not given here) [SEQ ID NO: 63]	most potent	79 °C	~1 mg/kg	comparable profile in both hypercholesterolemic and normal mice	78 °C	–	–	–	–	–
5′-ccAttGtcAcaCtcCa-3′ (antisense CCATTGTCACACTCCA; sugars from the 5' end ddlddlddlddlddld, backbone and methylation of C not given here) [SEQ ID NO: 61]	–	69 °C	–	–	69 °C	inhibition could still be detected	approached those of the saline group	two-fold inhibition	3 to 5 mg/kg	50%

Reference: patent US8440637B2, “Combination treatment for the treatment of hepatitis C virus infection” (priority 2007, dated 2013)
